Several values for one entry are separate records, joined by “and”; a condition that tells them apart may be missing. Equal values may be shown once.
Test system: 128128-338-R-J1-PDC spheroids, viability % test/control
Experiment: Anticancer human tumor 128128-338-R-J1-PDC patient-derived melanoma cell line growth inhibition [TAK]
Details: spheroids with HUVEC and MSC; for viability, T/C: stronger effect = lower value
Excerpt: Combinatorial screen of targeted agents with TAK-243 and ipatasertib in multi-cell type tumor spheroids
A high-throughput screen of multi-cell type tumor spheroids was designed to identify active combinations of targeted small molecules and TAK-243 or ipatasertib. Complex spheroids include a stromal component modeled by human endothelial cells (HUVEC) and fibroblasts modeled by human mesenchymal stem cells (MSCs). The concentration ranges selected for each drug and investigational agent were based upon clinically achievable concentrations if the clinical Cmax of the agent was known.
Compounds. The drugs and investigational agents: TAK-243 (785004), ipatasertib (767898), everolimus (733504), selumetinib (741078), bortezomib (756655), trametinib (758246), ixazomib (758254), vemurafenib (761431), dabrafenib (764134), sapanisertib (764658), alpelisib (765974), and copanlisib (816437), were obtained from the National Cancer Institute (NCI) Developmental Therapeutics Program Chemical Repository. The FDA-approved anticancer drug set is available from the NCI Developmental Therapeutics Program. […] The stock solutions were prepared in dimethyl sulfoxide (DMSO, Sigma-Aldrich, St. Louis, MO, cat. D2650) at 800-fold the tested concentration and stored at -70 degrees C prior to their use. All drugs and investigational agents were tested over a range starting from a high concentration at or near the clinical Cmax and decreasing in half-log increments. If the clinical Cmax for an agent had not been determined, the highest concentration tested was 10 microM.
NCI60 Cell Culture. NCI60 cell lines were obtained from the NCI Developmental Therapeutics Program Tumor Repository. For each lot of cells, the Repository performed Applied Biosystems AmpFLSTR Identifiler testing with PCR amplification to confirm consistency with the published Identifier STR profile for each cell line. Cells were kept in continuous culture for no more than 20 passages. The optimal seeding densities for each of the cell lines at each time point assessed were determined prior to performing the concentration response studies. Briefly, the NCI60 human tumor lines were grown as monolayers in RPMI 1640 medium supplemented with 10% FBS and 2 mmol/L L-glutamine.
An additional 2 lines were from the NCI60 cell line panel including melanomas, MALME-3M and SK-MEL-2. Pooled donor human umbilical vein endothelial cells (HUVEC, Lonza, cat. CC-2519) and human mesenchymal stem cells (hMSC, Lonza, cat. PT-2501) were purchased from Lonza (Walkersville, MD).
PDMR cell lines were grown in complete medium (DC medium): Dulbecco's modified Eagle's medium (DMEM)/F12 supplemented with 5% fetal bovine serum (FBS), 2 mM L-glutamine, 100 U/mL penicillin and 100 µg/ml streptomycin, 0.4 µg/ml hydrocortisone, 10 ng/ml epidermal growth factor (EGF) recombinant human protein, 24 µg/mL adenine, and 0.1 mg/mL primocin. During culture from frozen stock vials, PDMR cells were cultured in the same medium containing 10 µM Y-27632 (see Table 3). The PDCs were cultured in complete DMEM/F12 media without 10 microM Y-27632 dihydrochloride for at least two passages prior to the screen. The pooled donor HUVEC and hMSC were cultured in endothelial cell growth medium 2 (PromoCell, Heidelberg, Germany, cat. C-22011) and mesenchymal stem cell growth medium 2 (PromoCell, cat. C-28009), respectively. For all experiments, HUVEC and hMSC were used at passages </=5.
For the pre-screen, cell seeding densities were determined from a titration spanning the range from 5,000 to 313 cells per well. The mct-spheroids including 60% malignant cells, 25% HUVEC and 15% MSC dispensed as a mixture into U-bottom Ultra-Low Attachment 384-well plates (Corning, NY)
High-throughput Drug Combination Screening.
Prior to their inoculation into 384-well plates, malignant cells, HUVEC, and hMSC were removed from T flasks using TrypLE express (Thermo Fisher Scientific, cat. 12605036) and harvested by centrifugation for 5 min at 233 x g. […]

[1] = curve of first compound, second compound 0.3 µM
[2] = curve of first compound, second compound 0.949 µM
[3] = curve of first compound, second compound 3 µM
[4] = curve of first compound, second compound 9.49 µM
[5] = curve of first compound, second compound 30 µM
[6] = second compound 0.3 µM, first compound 0.316 µM
[7] = second compound 0.3 µM, first compound 1 µM
[8] = second compound 0.3 µM, first compound 3.16 µM
[9] = second compound 0.3 µM, first compound 10 µM
[10] = second compound 0.949 µM, first compound 0.316 µM
[11] = second compound 0.949 µM, first compound 1 µM
[12] = second compound 0.949 µM, first compound 3.16 µM
[13] = second compound 0.949 µM, first compound 10 µM
[14] = second compound 3 µM, first compound 0.316 µM
[15] = second compound 3 µM, first compound 1 µM
[16] = second compound 3 µM, first compound 3.16 µM
[17] = second compound 3 µM, first compound 10 µM
[18] = second compound 9.49 µM, first compound 0.316 µM
[19] = second compound 9.49 µM, first compound 1 µM
[20] = second compound 9.49 µM, first compound 3.16 µM
[21] = second compound 9.49 µM, first compound 10 µM
[22] = second compound 30 µM, first compound 0.316 µM
[23] = second compound 30 µM, first compound 1 µM
[24] = second compound 30 µM, first compound 3.16 µM
[25] = second compound 30 µM, first compound 10 µM
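Note: spheroids exposed to compounds for 7 days.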
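Throughout, for viability, T/C: 100% = DMSO vehicle wells.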

SMILES | IC50 [1] [nM] | IC50 [2] [nM] | IC50 [3] [nM] | IC50 [4] [nM] | IC50 [5] [nM] | viability, T/C [6] [%] | viability, T/C [7] [%] | viability, T/C [8] [%] | viability, T/C [9] [%] | viability, T/C [10] [%] | viability, T/C [11] [%] | viability, T/C [12] [%] | viability, T/C [13] [%] | viability, T/C [14] [%] | viability, T/C [15] [%] | viability, T/C [16] [%] | viability, T/C [17] [%] | viability, T/C [18] [%] | viability, T/C [19] [%] | viability, T/C [20] [%] | other results
CCCS(=O)(=O)Nc1ccc(F)c(C(=O)c2c[nH]c3ncc(-c4ccc(Cl)cc4)cc23)c1F + CC(C)NCC(C(=O)N1CCN(c2ncnc3c2C(C)CC3O)CC1)c1ccc(Cl)cc1 | 1070 | 1110 | 462 | < 316 | < 316 | 82.5 | 52.1 | 12.2 | 0.57 | 74.3 | 54.4 | 7.73 | 0.33 | 63.9 | 22.1 | 1.94 | 0.06 | 30.6 | 9.75 | 0.65 | viability, T/C (second compound 0.3 µM, first compound 31.6 µM): 0.08%; viability, T/C (second compound 0.3 µM, first compound 100 µM): 0.68%; viability, T/C (second compound 0.949 µM, first compound 31.6 µM): 0.08%; viability, T/C (second compound 0.949 µM, first compound 100 µM): 0.4%; viability, T/C (second compound 3 µM, first compound 31.6 µM): 0.03%; viability, T/C (second compound 3 µM, first compound 100 µM): 0.24%; viability, T/C [21]: 0.02%; viability, T/C (second compound 9.49 µM, first compound 31.6 µM): 0.03%; viability, T/C (second compound 9.49 µM, first compound 100 µM): 0.11%; viability, T/C [22]: 2.32%; viability, T/C [23]: 0.63%; viability, T/C [24]: 0.12%; viability, T/C [25]: 0.07%; viability, T/C (second compound 30 µM, first compound 31.6 µM): 0.08%; viability, T/C (second compound 30 µM, first compound 100 µM): 0.12%
COc1c(OCCCN2CCOCC2)ccc2c3n(c(=NC(=O)c4cnc(N)nc4)nc12)CCN3 |  |  |  |  |  |  |  |  |  |  |  |  |  |  |  |  |  |  |  |  | viability, T/C (compound 0.00316 µM): 109% and 105%; viability, T/C (compound 0.01 µM): 99.4% and 96.6%; viability, T/C (compound 0.0316 µM): 99.3% and 84.1%; viability, T/C (compound 0.1 µM): 75.9% and 72%; viability, T/C (compound 0.316 µM): 21.6% and 15.2%; viability, T/C (compound 1 µM): 8.68% and 5.59%; IC50 (curve of compound): 173 nM and 153 nM
Cc1nc(NC(=O)N2CCCC2C(N)=O)sc1-c1ccnc(C(C)(C)C(F)(F)F)c1 (configuration not stated) + CC(C)NCC(C(=O)N1CCN(c2ncnc3c2C(C)CC3O)CC1)c1ccc(Cl)cc1 | > 10000 | > 10000 | > 10000 | 3460 | < 31.6 | 102 | 105 | 105 | 73.2 | 100 | 91.7 | 82.7 | 81.8 | 90.7 | 84.7 | 80 | 54.5 | 68.5 | 64.8 | 51.8 | viability, T/C (second compound 0.3 µM, first compound 0.0316 µM): 102%; viability, T/C (second compound 0.3 µM, first compound 0.1 µM): 105%; viability, T/C (second compound 0.949 µM, first compound 0.0316 µM): 89%; viability, T/C (second compound 0.949 µM, first compound 0.1 µM): 103%; viability, T/C (second compound 3 µM, first compound 0.0316 µM): 95.8%; viability, T/C (second compound 3 µM, first compound 0.1 µM): 88.8%; viability, T/C (second compound 9.49 µM, first compound 0.0316 µM): 69.5%; viability, T/C (second compound 9.49 µM, first compound 0.1 µM): 70.2%; viability, T/C [21]: 23.7%; viability, T/C (second compound 30 µM, first compound 0.0316 µM): 24.1%; viability, T/C (second compound 30 µM, first compound 0.1 µM): 21.2%; viability, T/C [22]: 22.1%; viability, T/C [23]: 16.6%; viability, T/C [24]: 15%; viability, T/C [25]: 3.6%
